Source: publication PMC4766415 (Nature Communications, 2016)

What was measured:
WT-TTR [1] = target: T1, WT-TTR (Homo sapiens, UniProt P02766); assay: TTR stabilization in urea, Trp fluorescence; format: biochemical; set-up: made in house; host or cells: Escherichia coli BL21(DE3), pET expression system; details: 72 h; for WT-tetramer unfolded: WT-TTR 1.8 μM, 6.5 M urea, RT
Description: In urea, TTR tetramer dissociation precedes monomer unfolding, a process easily tracked by monitoring changes in intrinsic Trp fluorescence.
At high denaturant concentrations, the rate of TTR tetramer dissociation is linked irreversibly to monomer unfolding. […] Intrinsic fluorescence was recorded after 72 h.
Urea was added to attain a range of final concentrations (0–9 M) and the samples were incubated for 72 h at RT. Fluorescence intensity measurements were performed on a Jasco FP-8200 Spectrofluorometer. Trp fluorescence was obtained by exciting the samples at 280 nm and emission was collected from 300 to 400 nm. The fluorescence intensity ratio 355/335 nm was plotted against urea concentration as a sensor of folded protein, which for TTR in urea is equivalent to tetramer integrity. […] The fraction of unfolded TTR was measured and calculated as above. The TTR fluorescence after incubation at RT for 72 h in 9 M urea was considered to correspond to that of the unfolded state.

[2] = test system: Rat Schwannoma cells (RN22); assay: Caspase-3 activation by Y78F-TTR oligomers in RN22 cells; details: Y78F-TTR aggregates 2 μM formed with 20 μM compound; 24 h exposure
A25T-TTR = A25T-TTR aggregation inhibition, turbidity, pH 5.0; details: four molar equivalents (15 μM); A25T-TTR 3.6 μM; pH 5.0, 37 °C, 22 h
[3] = test system: T2, tetrameric TTR in human plasma; assay: Ex vivo plasma TTR stability by immunoturbidity after urea denaturation; format: biochemical; details: 4.8 M urea, 48 h; pooled plasma of healthy volunteers
T2 construct: Plasma TTR was then immunoprecipitated; from tissue; host or cells: human plasma
Excerpt: Stabilization of plasma TTR under physiological conditions was confirmed using an immunoturbidity assay[29] (Fig. 4c). […] After urea treatment, samples were crosslinked with glutaraldehyde and the concentration of TTR determined by immunoturbidity. Treatment with urea and glutaraldehyde decreases immunoturbidity signal due to the extensive modification of denatured TTR monomers by glutaraldehyde, hampering antibody recognition. As TTR denaturation is preceded by tetramer dissociation, the signal roughly correlates with tetramer stability.
A pool of lithium-heparin plasma samples from healthy volunteers stored at −80 °C was thawed on ice. Partially clotted particles were removed by spinning the samples for 2 min at 10,000g. […] Addition volume was limited to maximum 1.5% (v/v) of sample. A control in which DMSO vehicle was added was included in the experimental design. Samples were then mixed with a urea solution (8 M in 50 mM potassium phosphate pH 7.0, 100 mM NaCl, 1 mM dithiothreitol, 1 mM EDTA) to a final urea concentration of 4.8 M, and incubated for various time points at controlled RT conditions. […] Samples were transferred to a measuring tube and read by immunoturbidity after 5 min at RT. Immunoturbidity was measured in a Siemens Automate Dimension EXL200 instrument, using the Siemens Prealbumin (PALB) reagent and calibrator according to the manufacturer's instructions. […]

[4] = test system: T3, TTR in human plasma (WT-TTR and V30M-TTR); assay: [125I]T4 competition in human plasma, native gel electrophoresis; format: binding; details: 1 mM; plasma from normal (WT-TTR) and V30M-TTR FAP patient; 1 h RT
T3 construct: human plasma from a normal (WT-TTR) and from an FAP patient carrying the V30M-TTR mutation; from tissue; host or cells: human plasma of normal donors and of V30M-TTR carriers
Excerpt: Error bars indicate s.e.m. (n=3). […] Error bars indicate s.e.m. (n=3).

[5] = no reference given; cited from earlier work
V122I-TTR = V122I-TTR (Homo sapiens, UniProt P02766, V142I); assay: Isothermal titration calorimetry, V122I-TTR
[6] = test system: WT and V30M-TTR tetramers in plasma; assay: TTR tetramer stability in human plasma by IEF under semi-denaturing conditions; format: biochemical; details: 1.4 mM, overnight 4 °C, 4 M urea
WT-TTR [7] = target: T1, WT-TTR; assay: Isothermal titration calorimetry, WT-TTR
TTR tetramer = test system: T4, TTR tetramer; assay: TTR stabilization after oral administration in humans (immunoturbidity, urea); format: in vivo, human; details: for FOI (TTR tetramer after 48 h urea/TTR tetramer at time 0): 4.8 M urea
T4 construct: Plasma TTR was then immunoprecipitated; from tissue; host or cells: human plasma
Description: TTR stabilization in vivo was measured using an immunoturbidimetric assay as in Fig. 4c. The fraction of initial tetramer concentration (FOI) was determined in triplicate for each sample (FOI=TTR tetramer after 48 h urea treatment/TTR tetramer at time 0 in the presence of urea).
For TTR stabilization analysis, frozen plasma samples were thawed on ice. Samples were then mixed with a 8 M urea solution (in 40 mM sodium phosphate pH 7.4 and 80 mM KCl) to a final urea concentration of 4.8 M. One aliquot was taken immediately after adding urea (time 0) and the rest were incubated for 48 h at controlled RT conditions. After the incubation time points (0 or 48 h), TTR was crosslinked with 40 mM glutaraldehyde (2.5 M stock solution). The samples were quickly vortexed and incubated for 4 min at RT. Then, NaBH4 was added to a final concentration of 48 mM to quench the reaction. Samples were transferred to a measuring tube and read by immunoturbidity after 5 min at RT. Immunoturbidity was measured in a Beckman Coulter AU680 ISE instrument (Beckman Coulter), using the Olympus OSR6175 reagent and calibrator ODR3029 (Olympus) according to the manufacturer's instructions. Analysis was performed in triplicates. Informed consent was obtained from all subjects and the protocol was approved by the Ethics Committee of Hospital Vall d'Hebron (Barcelona).

[8] = cited from earlier work
[9] = two identical and independent binding sites
[10] = general model, two ligand-binding sites

Cc1ccc(C(=O)c2cc(O)c(O)c([N+](=O)[O-])c2)cc1 [tolcapone]
WT-tetramer unfolded (WT-TTR [1]; 2 molar equivalents): 33.8% | WT-tetramer unfolded (WT-TTR [1]; 4 molar equivalents): 8% | TTR remaining in the native state (WT-TTR [1]; 10 molar equivalents, 8 M urea): more than 80% | reduction in Caspase-3 activation [2]: 27.8%±6.1 | reduction of A25T-TTR aggregation (turbidity, Fig. 1d) (A25T-TTR): 40% | stabilization of plasma TTR against urea denaturation [3]: stabilized TTR in a dose-responsive manner | radioactive T4-TTR band in the presence of compound [4]: no longer visible | half-life in plasma [5]: 2 to 3 h | TΔs binding entropy (V122I-TTR; called unfavourable): 1.6 kcal/mol | Δh binding enthalpy per site (V122I-TTR; [9]): -11.5 kcal/mol | β1 association constant (V122I-TTR; [9]): 1.8e+07 M⁻¹ | TTR tetramer stabilization in plasma [6]: stabilized WT and V30M-TTR tetramers in plasma | TΔs1 binding entropy (WT-TTR [7]; first ligand): 1.8 kcal/mol | Δh1 site-specific binding enthalpy (WT-TTR [7]; first ligand): -8.7 kcal/mol | ΔH1 overall binding enthalpy (WT-TTR [7]; [10]): -8.7 kcal/mol | ΔH2 overall binding enthalpy (WT-TTR [7]; [10]): -18.4 kcal/mol | β2 overall association constant (WT-TTR [7]; [10]): 7.9 × 10^14 M^−2 | TΔs2 binding entropy (WT-TTR [7]; second ligand): 0.2 kcal/mol | Δh2 site-specific binding enthalpy (WT-TTR [7]; second ligand): -9.7 kcal/mol | FOI (TTR tetramer after 48 h urea/TTR tetramer at time 0) (TTR tetramer; HV1, 200 mg oral, plasma 2 h after dose): 0.78±0.04 | FOI (TTR tetramer after 48 h urea/TTR tetramer at time 0) (TTR tetramer; HV2, 2 × 200 mg oral, plasma 2 h after last dose): 0.98±0.02 | TTR stabilization (TTR tetramer; single dose of 200 mg, plasma 13.6 μM at Tmax): 359% | blood–brain barrier crossing [8]: able to cross the blood–brain barrier
